Measured values taken from paper PMC9305623, “Next generation GLP-1/GIP/glucagon triple agonists normalize body weight in obese mice” (Molecular Metabolism, 2022).
*1 amine or outer side, *2 acyl side, *3 side chain or, on linkers, in order; H or OH if unused. Where a SMILES comes first, the peptide text is derived from it. Side-chain parts run from the residue outwards. [ ]: non-standard residue; d: D form. The star is where a group is joined. C20 diacid = O=C(O)CCCCCCCCCCCCCCCCCCC(=O)*; γGlu = O=C(O)[C@H](CCC(=O)[*:2])N[*:1]; εLys = N[C@@H](CCCCN[*:1])C(=O)[*:2]; AEEA = NCCOCCOCC(=O)O; Aib = CC(C)(N)C(=O)O

Legend:
Test in all cases: Receptor activation: cAMP production by CRE-luciferase reporter in stably transfected BHK cells
Assay type in all cases: cell-based
[1] = target: T1, hGIP Receptor (Homo sapiens, UniProt P48546); conditions: for hGIP Receptor Relative Potency %: compared to the native ligand for the receptor
T1 construct: expressed in transfected cells; host or cells: baby hamster kidney (BHK) cells, stably transfected, with CRE-firefly luciferase reporter
T1 sequence (P48546 22-466): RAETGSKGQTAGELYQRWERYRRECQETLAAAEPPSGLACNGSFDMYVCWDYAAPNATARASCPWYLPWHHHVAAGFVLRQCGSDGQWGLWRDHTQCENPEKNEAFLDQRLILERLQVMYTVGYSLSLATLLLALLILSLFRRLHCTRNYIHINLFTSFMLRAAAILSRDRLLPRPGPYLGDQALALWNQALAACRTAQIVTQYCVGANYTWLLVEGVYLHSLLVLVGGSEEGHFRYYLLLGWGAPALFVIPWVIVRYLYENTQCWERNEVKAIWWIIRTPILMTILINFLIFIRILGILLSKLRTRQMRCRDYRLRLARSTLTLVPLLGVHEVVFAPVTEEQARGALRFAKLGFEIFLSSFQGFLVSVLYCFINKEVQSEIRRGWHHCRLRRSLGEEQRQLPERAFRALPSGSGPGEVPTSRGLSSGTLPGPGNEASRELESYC
Description: (§1) Cyclic AMP (cAMP) production was assessed as a proxy for receptor activation using stably transfected baby hamster kidney (BHK) cell lines expressing the DNA for one individual receptor (GLP-1R, GIPR, GcgR; human- or mouse-specific sequence) and the DNA for the firefly luciferase reporter gene linked to the cAMP response element (CRE). The cells were kept in continuous culture at 37 °C and 5% CO2 in Dulbecco's Modified Eagle Medium (DMEM) supplemented with 10% heat-inactivated fetal bovine serum (HI-FBS), 300 μg/mL hygromycin, and 500 μg/mL G418; for cell lines expressing GIPR, the G418 concentration was lowered to 400 μg/mL. Cells were plated in a 96-well poly-D-lysine-coated plate at 5,000 cells per well in growth media and incubated overnight at 37 °C with 5% CO2. After the overnight incubation, the media was removed, the plate was washed once in Dulbecco's phosphase-buffered saline (DPBS), and 50 μL of assay buffer (DMEM without phenol red, 10 mM HEPES, 1x Glutamax, 1% ovalbumin, 0.1% Pluronic F-68) was added to each well. […] Aliquots of the dilution curves were added to the cell plate in a volume of 50 μL per well resulting in final assay concentrations ranging from 1 × 10^−14 to 1 × 10^−7 M. The assay plate was incubated for 3 h at 37 °C and 5% CO2. After the incubation, the assay plate was washed once with DPBS. A 100 μL aliquot of DPBS was added to each well followed by 100 μL of steadylite plus reagent (PerkinElmer). The assay plate was covered to protect reagent from light, shaken at 250 rpm at room temperature for 30 min, and read in a microtiter plate reader. EC50 values were calculated using Prism software (GraphPad) with the nonlinear regression log(agonist) vs. response. A minimum of two replicates were measured for each sample.

[2] = target: T2, hGLP-1 Receptor (Homo sapiens, UniProt P43220); conditions: for hGLP-1 Receptor Relative Potency %: compared to the native ligand for the receptor
T2 construct: expressed in transfected cells; host or cells: baby hamster kidney (BHK) cells, stably transfected, with CRE-firefly luciferase reporter
Description: as §1

[3] = target: T3, hGcg Receptor (Homo sapiens, UniProt P47871); conditions: for hGcg Receptor Relative Potency %: compared to the native ligand for the receptor
T3 construct: expressed in transfected cells; host or cells: baby hamster kidney (BHK) cells, stably transfected, with CRE-firefly luciferase reporter
Description: as §1

T3 sequence (P47871 26-477): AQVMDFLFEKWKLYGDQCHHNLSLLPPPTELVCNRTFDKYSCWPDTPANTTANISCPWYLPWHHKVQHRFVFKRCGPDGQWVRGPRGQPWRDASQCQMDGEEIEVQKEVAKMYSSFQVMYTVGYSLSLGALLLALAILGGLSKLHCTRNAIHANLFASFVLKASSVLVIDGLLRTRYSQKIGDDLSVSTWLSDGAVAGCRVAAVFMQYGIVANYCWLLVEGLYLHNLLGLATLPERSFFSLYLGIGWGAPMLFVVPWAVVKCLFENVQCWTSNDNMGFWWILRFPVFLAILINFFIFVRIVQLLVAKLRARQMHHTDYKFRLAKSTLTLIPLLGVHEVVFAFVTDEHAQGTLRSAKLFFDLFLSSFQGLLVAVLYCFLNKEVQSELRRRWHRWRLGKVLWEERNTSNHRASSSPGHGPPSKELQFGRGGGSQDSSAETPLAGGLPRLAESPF
T2 sequence (P43220 24-463): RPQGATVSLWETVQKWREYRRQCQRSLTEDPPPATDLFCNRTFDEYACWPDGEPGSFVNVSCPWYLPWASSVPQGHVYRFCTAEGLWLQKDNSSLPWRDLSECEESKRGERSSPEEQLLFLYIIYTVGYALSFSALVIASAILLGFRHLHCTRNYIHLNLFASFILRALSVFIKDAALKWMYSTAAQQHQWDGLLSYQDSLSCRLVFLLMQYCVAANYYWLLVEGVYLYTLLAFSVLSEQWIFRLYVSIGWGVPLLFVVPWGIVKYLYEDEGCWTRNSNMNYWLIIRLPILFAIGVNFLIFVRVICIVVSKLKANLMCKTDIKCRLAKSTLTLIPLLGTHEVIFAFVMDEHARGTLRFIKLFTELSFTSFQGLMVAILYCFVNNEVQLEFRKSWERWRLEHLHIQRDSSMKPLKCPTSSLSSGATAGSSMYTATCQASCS

| SMILES | hGIP Receptor Relative Potency % [1] | hGLP-1 Receptor Relative Potency % [2] | hGcg Receptor Relative Potency % [3] | EC50 ([1]; BHK cells expressing human GIPR and CRE-luciferase, 12-point curve, 3 h, 37 °C, assay buffer with 1% ovalbumin, minimum of two replicates) | EC50 ([2]; BHK cells expressing human GLP-1R and CRE-luciferase, 12-point curve, 3 h, 37 °C, assay buffer with 1% ovalbumin, minimum of two replicates) | EC50 ([3]; BHK cells expressing human GcgR and CRE-luciferase, 12-point curve, 3 h, 37 °C, assay buffer with 1% ovalbumin, minimum of two replicates) |
| --- | --- | --- | --- | --- | --- | --- |
| CCCCCCCCCCCCCCCC(=O)NCCCC[C@H](NC(=O)[C@H](CO)NC(=O)[C@@H]1CCCN1C(=O)[C@@H]1CCCN1C(=O)[C@@H]1CCCN1C(=O)[C@H](C)NC(=O)CNC(=O)[C@H](CO)NC(=O)[C@H](CO)NC(=O)[C@@H]1CCCN1C(=O)CNC(=O)CNC(=O)[C@H](C)NC(=O)[C@H](CC(C)C)NC(=O)[C@H](CC(C)C)NC(=O)[C@H](Cc1c[nH]c2ccccc12)NC(=O)[C@H](CC(N)=O)NC(=O)[C@@H](NC(=O)[C@H](Cc1ccccc1)NC(=O)[C@H](CCC(=O)O)NC(=O)C(C)(C)NC(=O)[C@H](C)NC(=O)[C@H](C)NC(=O)[C@H](CCC(N)=O)NC(=O)[C@H](CCCCN)NC(=O)[C@H](CC(=O)O)NC(=O)[C@H](CC(C)C)NC(=O)[C@H](Cc1ccc(O)cc1)NC(=O)[C@@H](NC(=O)[C@H](CO)NC(=O)[C@H](Cc1ccc(O)cc1)NC(=O)[C@H](CC(=O)O)NC(=O)[C@H](CO)NC(=O)[C@@H](NC(=O)[C@H](Cc1ccccc1)NC(=O)[C@@H](NC(=O)CNC(=O)[C@H](CCC(N)=O)NC(=O)C(C)(C)NC(=O)[C@@H](N)Cc1ccc(O)cc1)[C@@H](C)O)[C@@H](C)O)[C@@H](C)CC)C(C)C)C(N)=O [Compound 5] | 173% | 199% | 33% | – | – | – |
| CC[C@H](C)[C@H](NC(=O)[C@H](CO)NC(=O)[C@H](Cc1ccc(O)cc1)NC(=O)[C@H](CC(=O)O)NC(=O)[C@H](CO)NC(=O)[C@@H](NC(=O)[C@H](Cc1ccccc1)NC(=O)[C@@H](NC(=O)CNC(=O)[C@H](CCC(N)=O)NC(=O)C(C)(C)NC(=O)[C@@H](N)Cc1ccc(O)cc1)[C@@H](C)O)[C@@H](C)O)C(=O)N[C@@H](Cc1ccc(O)cc1)C(=O)N[C@@H](CC(C)C)C(=O)N[C@@H](CC(=O)O)C(=O)N[C@@H](CCCCN)C(=O)N[C@@H](CCC(N)=O)C(=O)N[C@@H](C)C(=O)N[C@@H](C)C(=O)NC(C)(C)C(=O)N[C@@H](CCC(=O)O)C(=O)N[C@@H](Cc1ccccc1)C(=O)N[C@H](C(=O)N[C@@H](CC(N)=O)C(=O)N[C@@H](Cc1c[nH]c2ccccc12)C(=O)N[C@@H](CC(C)C)C(=O)N[C@@H](CC(C)C)C(=O)N[C@@H](C)C(=O)NCC(=O)NCC(=O)N1CCC[C@H]1C(=O)N[C@@H](CO)C(=O)N[C@@H](CO)C(=O)NCC(=O)N[C@@H](C)C(=O)N1CCC[C@H]1C(=O)N1CCC[C@H]1C(=O)N1CCC[C@H]1C(=O)N[C@@H](CO)C(=O)N[C@@H](CCCCNC(=O)COCCOCCNC(=O)COCCOCCNC(=O)CC[C@H](NC(=O)CCCCCCCCCCCCCCCCC(=O)O)C(=O)O)C(N)=O)C(C)C [Compound 6] | 23% | 59% | 1% | – | – | – |
| CC[C@H](C)[C@H](NC(=O)[C@H](CO)NC(=O)[C@H](Cc1ccc(O)cc1)NC(=O)[C@H](CC(=O)O)NC(=O)[C@H](CO)NC(=O)[C@@H](NC(=O)[C@H](Cc1ccccc1)NC(=O)[C@@H](NC(=O)CNC(=O)[C@H](CCC(N)=O)NC(=O)C(C)(C)NC(=O)[C@@H](N)Cc1ccc(O)cc1)[C@@H](C)O)[C@@H](C)O)C(=O)N[C@@H](Cc1ccc(O)cc1)C(=O)N[C@@H](CC(C)C)C(=O)N[C@@H](CCC(=O)O)C(=O)N[C@@H](CCCCNC(=O)COCCOCCNC(=O)COCCOCCNC(=O)CC[C@H](NC(=O)CCCCCCCCCCCCCCCCCCC(=O)O)C(=O)O)C(=O)N[C@@H](CCC(N)=O)C(=O)N[C@@H](C)C(=O)N[C@@H](C)C(=O)NC(C)(C)C(=O)N[C@@H](CCC(=O)O)C(=O)N[C@@H](Cc1ccccc1)C(=O)N[C@H](C(=O)N[C@@H](CCC(N)=O)C(=O)N[C@@H](Cc1c[nH]c2ccccc12)C(=O)N[C@@H](CC(C)C)C(=O)N[C@@H](CC(C)C)C(=O)N[C@@H](CCC(=O)O)C(=O)NCC(=O)NCC(=O)N1CCC[C@H]1C(=O)N[C@@H](CO)C(=O)N[C@@H](CO)C(=O)NCC(=O)N[C@@H](C)C(=O)N1CCC[C@H]1C(=O)N1CCC[C@H]1C(=O)N1CCC[C@H]1C(=O)N[C@@H](CO)C(N)=O)C(C)C [Compound 9] (H-Y[Aib]QGTFTSDYSIYLEK([AEEA-AEEA-γGlu-C20 diacid])QAA[Aib]EFVQWLLEGGPSSGAPPPS-NH2) | 92% | 220% | 5% | 0.0114 nM | 0.0031 nM | 0.185 nM |
| CC[C@H](C)[C@H](NC(=O)[C@H](CO)NC(=O)[C@H](Cc1ccc(O)cc1)NC(=O)[C@H](CC(=O)O)NC(=O)[C@H](CO)NC(=O)[C@@H](NC(=O)[C@H](Cc1ccccc1)NC(=O)[C@@H](NC(=O)CNC(=O)[C@H](CCC(N)=O)NC(=O)C(C)(C)NC(=O)[C@@H](N)Cc1ccc(O)cc1)[C@@H](C)O)[C@@H](C)O)C(=O)N[C@@H](Cc1ccc(O)cc1)C(=O)N[C@@H](CC(C)C)C(=O)N[C@@H](CCC(=O)O)C(=O)N[C@@H](CCCCNC(=O)[C@@H](N)CCCCNC(=O)[C@@H](N)CCCCNC(=O)CC[C@H](NC(=O)CCCCCCCCCCCCCCCCCCC(=O)O)C(=O)O)C(=O)N[C@@H](CCC(N)=O)C(=O)N[C@@H](C)C(=O)N[C@@H](C)C(=O)NC(C)(C)C(=O)N[C@@H](CCC(=O)O)C(=O)N[C@@H](Cc1ccccc1)C(=O)N[C@H](C(=O)N[C@@H](CCC(N)=O)C(=O)N[C@@H](Cc1c[nH]c2ccccc12)C(=O)N[C@@H](CC(C)C)C(=O)N[C@@H](CC(C)C)C(=O)N[C@@H](CCC(=O)O)C(=O)NCC(=O)NCC(=O)N1CCC[C@H]1C(=O)N[C@@H](CO)C(=O)N[C@@H](CO)C(=O)NCC(=O)N[C@@H](C)C(=O)N1CCC[C@H]1C(=O)N1CCC[C@H]1C(=O)N1CCC[C@H]1C(=O)N[C@@H](CO)C(N)=O)C(C)C [Compound 10] (H-Y[Aib]QGTFTSDYSIYLEK([εLys-εLys-γGlu-C20 diacid])QAA[Aib]EFVQWLLEGGPSSGAPPPS-NH2) | 150% | 244% | 11% | – | – | – |
| CC[C@H](C)[C@H](NC(=O)[C@H](CO)NC(=O)[C@H](Cc1ccc(O)cc1)NC(=O)[C@H](CC(=O)O)NC(=O)[C@H](CO)NC(=O)[C@@H](NC(=O)[C@H](Cc1ccccc1)NC(=O)[C@@H](NC(=O)CNC(=O)[C@H](Cc1c[nH]cn1)NC(=O)C(C)(C)NC(=O)[C@@H](N)Cc1ccc(O)cc1)[C@@H](C)O)[C@@H](C)O)C(=O)N[C@@H](Cc1ccc(O)cc1)C(=O)N[C@@H](CC(C)C)C(=O)N[C@@H](CCC(=O)O)C(=O)N[C@@H](CCCCNC(=O)[C@@H](N)CCCCNC(=O)[C@@H](N)CCCCNC(=O)CC[C@H](NC(=O)CCCCCCCCCCCCCCCCCCC(=O)O)C(=O)O)C(=O)N[C@@H](CCC(N)=O)C(=O)N[C@@H](C)C(=O)N[C@@H](C)C(=O)NC(C)(C)C(=O)N[C@@H](CCC(=O)O)C(=O)N[C@@H](Cc1ccccc1)C(=O)N[C@H](C(=O)N[C@@H](CCC(N)=O)C(=O)N[C@@H](Cc1c[nH]c2ccccc12)C(=O)N[C@@H](CC(C)C)C(=O)N[C@@H](CC(C)C)C(=O)N[C@@H](CCC(=O)O)C(=O)NCC(=O)NCC(=O)N1CCC[C@H]1C(=O)N[C@@H](CO)C(=O)N[C@@H](CO)C(=O)NCC(=O)N[C@@H](C)C(=O)N1CCC[C@H]1C(=O)N1CCC[C@H]1C(=O)N1CCC[C@H]1C(=O)N[C@@H](CO)C(N)=O)C(C)C [Compound 11] (H-Y[Aib]HGTFTSDYSIYLEK([εLys-εLys-γGlu-C20 diacid])QAA[Aib]EFVQWLLEGGPSSGAPPPS-NH2) | 147% | 7% | 13% | – | – | – |
